Reference: article PMC5007552, “The hVps34‐SGK3 pathway alleviates sustained PI3K/Akt inhibition by stimulating mTORC1 and tumour growth” (The EMBO Journal, 2016)

How the values were obtained:
[1] = Plasma concentration at end of xenograft study; assay type: in vivo, mice; details: 2–3 h after last dose on day 24, MK-2206 100 mg/kg, 14h 25 mg/kg p.o.
Procedure: (§1) Figure 8 Dual treatment with Akt and SGK inhibitors reduces tumour growth in BT‐474 xenograft model • BT‐474 cells were treated for the indicated times with 0.3 μM MK‐2206. The cell lysates were analysed by immunoblot using the indicated antibodies. • BT‐474c cells were treated with inhibitors as indicated either as monotherapy or in combination and cell confluency measured on the Incucyte ZOOM every 4 h for up to 4 weeks. • BT‐474 cells were injected subcutaneously into athymic Foxn1 ^nu nude mice. […] The tumour volume was measured twice a week. Tumour growth is represented as the fold change mean ± SEM. • All mice were weighed at the end of the treatments. […] Results are presented as a mean ± SD from three different samples. • Tumours were harvested at the end of the experiment, 4 h after the last dosage and subjected to immunohistochemical analysis using cleaved caspase‐3 antibody (clCasp3). Apoptotic cells were counted in 25 fields per condition (left panel) and quantified as clCasp3‐positive cells/field (right panel). The results are presented as mean ± SD number of cleaved caspase‐3 positive cells. Representative images are shown. Scale bar, 100 μm. • Tumours were harvested at the end of the experiment, 4 h after the last dosage and subjected to immunohistochemical analysis with the indicated antibodies. Representative images are shown. Scale bar, 100 μm. • Tumours were obtained the same way as in (G) and subjected to immunoblot analysis with the indicated antibodies. Six different tumours were analysed from each treatment group and each line represents one tumour sample. TEXT PRINTED IN THE PICTURE: (E) MK-2206: plasma conc.

BT-474c cells = test: Cell growth in vitro (confluency, Incucyte ZOOM); assay type: cell-based, human
Procedure: as §1
SGK3 (upper panel) and S6K1 (middle panel) were immunoprecipitated and subjected to in vitro kinase assay by measuring phosphorylation of the Crosstide substrate peptide in the presence of 0.1 mM [γ‐^32P]ATP in a 30 min 30°C reaction. Kinase reactions are presented as means ± SD for triplicate reaction. Immunoprecipitates (IP) were also analysed by immunoblot with the indicated antibodies. […]

BT-474 xenograft tumours = test: Immunohistochemical and immunoblot analysis of signalling markers in xenograft tumours; assay type: in vivo, mice; details: end of treatment, IHC and immunoblot
Procedure: (§2) Figure 8 Dual treatment with Akt and SGK inhibitors reduces tumour growth in BT‐474 xenograft model • BT‐474 cells were treated for the indicated times with 0.3 μM MK‐2206. The cell lysates were analysed by immunoblot using the indicated antibodies. • BT‐474c cells were treated with inhibitors as indicated either as monotherapy or in combination and cell confluency measured on the Incucyte ZOOM every 4 h for up to 4 weeks. • BT‐474 cells were injected subcutaneously into athymic Foxn1 ^nu nude mice. […] The tumour volume was measured twice a week. Tumour growth is represented as the fold change mean ± SEM. • All mice were weighed at the end of the treatments. […] Apoptotic cells were counted in 25 fields per condition (left panel) and quantified as clCasp3‐positive cells/field (right panel). […] Six different tumours were analysed from each treatment group and each line represents one tumour sample. […]
(§3) Experiments involving mice were in accordance with Institutional Guidelines of Memorial Sloan Kettering Cancer Center (Protocol number 12‐10‐019). […] When tumours reached a volume of ~150 mm^3, mice were randomised, treated, and tumours were measured twice a week. Tumour volume was determined using the following formula: (length × width^2) ÷ 2. […]

[2] = tested on: BT-474 human breast xenograft; test: BT-474 xenograft tumour growth in nude mice; assay type: in vivo; details: 24 days, monotherapy
Procedure: as §2, §3

Row | plasma conc. ([1]; dual treatment) | plasma conc. ([1]; mono treatment) | SMILES | time to reach confluency (BT-474c cells; 0.3 μM Akt inhibitor, long-term growth assay) | phosphorylation markers in tumour samples (Akt 473, PRAS40, NDRG1, S6) (BT-474 xenograft tumours) | inhibition of in vivo growth of BT-474 ([2]; 100 mg/kg p.o. 5 times/week) | cell growth when 14h is combined with Akt inhibitor (BT-474c cells; 3 μM 14h with 0.3 μM AZD5363 or MK-2206, from beginning or 12 days after) | anti-proliferative effect alone (BT-474c cells; 3 μM, 5–6 days) | anti-tumour effect ([2]; 25 mg/kg p.o. 5 times/week)
1 | 2690 ± 250 nM | 2690 ± 530 nM | NC1(c2ccc(-c3nc4ccn5c(=O)[nH]nc5c4cc3-c3ccccc3)cc2)CCC1 [MK-2206] | ~20 days | ablated Akt 473 and PRAS40 phosphorylation | ~ 20% | – | – | –
2 | 1390 ± 360 nM | 1770 ± 540 nM | Nc1n[nH]c2nc(-c3ccc(NS(=O)(=O)c4cc(Cl)ccc4Cl)cc3)cnc12 [14h] | – | no major effect | – | further reduction in cell growth | little anti‐proliferative effect | No anti‐tumour effects
